Test results from ChEMBL document CHEMBL1201862, “PubChem BioAssay data set” (2004).
Where a name gives a salt, the structure may show the parent alone. The source made the active and inactive calls.

Assays:
[1] = cytotoxicity toward NIH3T3 fibroblasts, dose response, counter-screen, cell-based, ATP luminescence, mouse fibroblasts (AID 2010); type: functional;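 note: cells exposed to compound for about 90 hours before reading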
[2] = Vero cell cytotoxicity, dose response, cytotoxicity control for Vif-APOBEC3G degradation inhibitor project, Vero cells (AID 1117358); type: functional; settings: Human immunodeficiency virus 1, Vero
[3] = inhibitors of intracellular T. cruzi replication, confirmation, NIH3T3 host cells, beta-gal luminescence (AID 2044); type: functional, cell-based;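 note: intracellular parasites grown in NIH/3T3 mouse fibroblasts as host cells; luminescent beta-galactosidase reporter signal from transgenic T. cruzi replicating inside host cells; inhibitors lower the luminescence signal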
[4] = THP-1 cell cytotoxicity, dose response, cytotoxicity control for non-replicating M. tuberculosis project (AID 489025); type: functional
[5] = HeLa cell cytotoxicity, dose response, cytotoxicity control, CellTiter-Glo luminescence, dry powder, set 2 (AID 720593); type: functional, cell-based
[6] = HepG2 cell cytotoxicity, dose response, cytotoxicity control for non-replicating M. tuberculosis project (AID 489018); type: functional; settings: Mycobacterium tuberculosis
Streptokinase A = target: T1, Streptokinase A (Streptococcus pyogenes serotype M1, UniProt P10520); assay: S. pyogenes streptokinase expression inhibitors, potency, dose response, plasminogen activation absorbance, OD405 (AID 1914); type: functional, Streptococcus pyogenes M1 GAS;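 note: secreted streptokinase activity via plasminogen activation per viability signal from cell pellet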
T1 sequence (P10520 whole entry): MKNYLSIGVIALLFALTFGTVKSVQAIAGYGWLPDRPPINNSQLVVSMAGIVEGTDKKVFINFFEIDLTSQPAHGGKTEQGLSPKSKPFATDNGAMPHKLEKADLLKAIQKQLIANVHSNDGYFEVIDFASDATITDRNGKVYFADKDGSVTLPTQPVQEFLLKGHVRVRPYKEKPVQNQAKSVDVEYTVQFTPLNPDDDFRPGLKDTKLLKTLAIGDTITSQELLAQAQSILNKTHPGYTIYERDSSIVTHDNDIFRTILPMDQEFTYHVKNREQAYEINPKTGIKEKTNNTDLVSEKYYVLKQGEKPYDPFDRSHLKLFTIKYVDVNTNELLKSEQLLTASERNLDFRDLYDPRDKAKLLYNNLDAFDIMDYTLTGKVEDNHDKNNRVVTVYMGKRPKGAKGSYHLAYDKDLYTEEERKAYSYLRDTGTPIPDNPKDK

[7] = Vero E6 cell cytotoxicity, dose response, cytotoxicity control for non-replicating M. tuberculosis project, secondary assay (AID 492998); type: functional, VeroE6; settings: Vero C1008
Nonstructural protein 1 = Nonstructural protein 1 (Influenza A virus, UniProt Q194T2); type: functional, Influenza A virus (A/California/07/2009(H1N1))
Streptococcus = assay: Group A Streptococcus viability loss, dose response, counter-screen for streptokinase expression inhibitor project, luminescence, BacTiterGlo (AID 1915); type: functional, organism-based;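 note: potency for reduction of bacterial viability or growth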
cells [8] = type: functional
[9] = test system: Streptococcus sp. 'group A'; assay: growth inhibition of control SK(-) GAS strain, dose response, counter-screen for streptokinase expression inhibitor project, luminescence, kanamycin, BacTiterGlo, confirmation (AID 1900); type: functional, organism-based
[10] = HEK293T cell cytotoxicity, dose response, cytotoxicity control, CellTiter-Glo luminescence, dry powder, set 2 (AID 720595); type: functional, cell-based; settings: HEK293
Vasopressin V1b receptor = Vasopressin V1b receptor (Homo sapiens, UniProt P47901); assay: Late-stage results from the probe development effort to identify antagonists of arginine vasopressin receptor 1a (AVPR1a): fluorescence-based cell-based dose response AVPR1b inhibition counterscreen assay.; type: functional
Vasopressin V2 receptor = Vasopressin V2 receptor (Homo sapiens, UniProt P30518); assay: Late-stage results from the probe development effort to identify antagonists of arginine vasopressin receptor 1a (AVPR1a): fluorescence-based cell-based dose response AVPR2 inhibition counterscreen assay.; type: functional
[11] = Late-stage results from the probe development effort to identify antagonists of arginine vasopressin receptor 1a (AVPR1a): fluorescence-based cell-based dose response AVPR1a inhibition assay.; type: functional
[12] = Late-stage results from the probe development effort to identify antagonists of arginine vasopressin receptor 1a (AVPR1a): fluorescence-based cell-based dose response OXTR inhibition counterscreen assay.; type: functional
[13] = miR-122 activators in hepatoma reporter cells, dose response, cell-based, Huh7 psiCHECK-miR122, Renilla luciferase, cherry-picked (AID 651956); type: functional;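 note: huh7 hepatoma cells stably carrying a psiCHECK-2 miR-122 sensor plasmid; renilla luciferase signal reporting endogenous miR-122 activity after 48 h compound exposure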
[14] = HEK293T cytotoxicity, dose response, cytotoxicity control for miR-122 modulator project, cell-based, activator set, cherry-pick (AID 720690); type: functional;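 note: HEK293T human cells scored for general mammalian cytotoxicity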
[15] = Dose-response inhibition of insulin secretion in a rat insulinoma line at 5 mM glucose (AID 1117331); type: functional, cell-based; settings: INS-1E
HeLa = assay: HeLa cell cytotoxicity, dose response, cytotoxicity control, ATP luminescence, cherry-pick samples (AID 687004); type: functional, cell-based; settings: Homo sapiens
[16] = growth inhibition of replicating M. tuberculosis, dose response, counter-screen, dry powder, IC90 (AID 651617); type: functional; settings: Mycobacterium tuberculosis
[17] = inhibitors of non-replicating M. tuberculosis, dose response, luciferase, dry powder (AID 651619); type: functional; settings: Mycobacterium tuberculosis
[18] = cytotoxicity in HepG2 cells, dose response, cytotoxicity control, cell-based, plate reader, dry powder (AID 651947); type: functional
[19] = inhibitors of non-replicating M. tuberculosis, dose response, luciferase, dry powder (AID 651620); type: functional; settings: Mycobacterium tuberculosis
Major prion protein = Major prion protein (Homo sapiens, UniProt P04156); type: functional, cell-based
cells [20] = assay: cells
[21] = inhibitors of Vif binding to APOBEC3G peptide, primary screen, biochemical, TR-FRET, GST-Vif 1-94, biotin-A3G peptide, dose response retest (AID 1117319); type: functional;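 note: TR-FRET signal of purified GST-Vif binding a biotinylated A3G peptide; inhibitors lower the FRET signal by blocking Vif and A3G binding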
Protein S100-A4 = Protein S100-A4 (Homo sapiens, UniProt P26447); assay: S100A4-myosin IIA binding inhibitor potency, dose response, biochemical, fluorescence polarization, cherry-picked hits (AID 687001); type: functional
Large T antigen = Large T antigen (Simian virus 40, UniProt P03070); type: functional, Betapolyomavirus macacae;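 note: Confirmatory-stage PubChem screen for compounds that inhibit SV40 T antigen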
[22] = target: Bifunctional protein GlmU (Mycobacterium tuberculosis, UniProt P9WMN3); assay: Inhibitors of Mycobacterial Glucosamine-1-phosphate acetyl transferase (GlmU). Secondary screen.; set-up: species or system Mycobacterium tuberculosis H37Rv
[23] = NIH:OVCAR-3 ovarian cancer cell cytotoxicity, dose response, PAX8 inhibitor project, plate reader, dry powder samples (AID 743044); type: functional, cell-based
Paired box protein Pax-8 = Paired box protein Pax-8 (Homo sapiens, UniProt Q06710); assay: inhibitors of PAX8-driven TPO luciferase reporter, dose response, RMG-I cells, cherry-pick (AID 687027); type: functional, cell-based;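 note: luciferase reporter driven by Pax8 target thyroperoxidase promoter measured by SteadyGlo luminescence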
[24] = IGROV1 ovarian cancer cell cytotoxicity, dose response, PAX8 inhibitor project, plate reader, dry powder samples (AID 743043); type: functional, cell-based; settings: IGROV-1
[25] = cytotoxicity in OVCAR8 ovarian cancer cells, dose response, PAX8 project, cell-based, plate reader, dry powder samples (AID 743197); type: functional; settings: OVCAR-8
[26] = A2780 ovarian cancer cell cytotoxicity, dose response, cytotoxicity control, plate reader, dry powder samples (AID 743046); type: functional, cell-based
[27] = P. falciparum Dd2 growth inhibitors, dose response, SYBR Green, cherry-picked samples (AID 1159567); type: functional, cell-based
[28] = HepG2 cell cytotoxicity, dose response, cytotoxicity control, cherry-picked samples (AID 1159577); type: functional, cell-based
Caspase-6 = Caspase-6 (Homo sapiens, UniProt P55212); assay: human caspase-6 inhibitors, dose response, biochemical, VEID-R110 fluorescence, cherry-pick (AID 720632)

Structure (SMILES): CCCCn1c(NCc2ccccc2NS(=O)(=O)c2ccc(C)cc2)nc2ccccc21
- EC50 [1]: > 60 µM (not active)
- CC50 [2]: > 40 µM (active)
- EC50 [3]: 2.21 µM (active)

Structure (SMILES): O=C(Nc1nc(-c2ccccn2)cs1)c1ccco1
- CC50 [4]: 6.1 µM (active)
- AC50 [5]: > 52 µM (inactive)
- CC50 [6]: > 20 µM (active)
- EC50 (Streptokinase A): > 150 µM (not active)
- CC50 [7]: 11.3 µM (active)
- IC50 (Nonstructural protein 1): 7.12 µM (active)
- EC50 (Streptococcus): > 150 µM (not active)
- IC50 (cells [8]): 1.68 µM (active)
- EC50 [9]: 10.8 µM (active)
- AC50 [10]: 7.58 µM (active)

Structure (SMILES): Cc1ccccc1N1CCN(c2nc3ccccc3n2CC2CC2)CC1
- IC50 (Vasopressin V1b receptor): 15.5 µM (inactive)
- IC50 (Vasopressin V2 receptor): 19.4 µM (inactive)
- IC50 [11]: 7.54 µM (active)
- IC50 [12]: 19.4 µM (inactive)

Structure (SMILES): CC(=O)/N=c1\scc(-c2ccccc2)n1-c1cccc(O)c1
- AC50 [13]: 25.1 µM (active)
- AC50 [14]: 44.8 µM (active)

Structure (SMILES): CCCN1CCCC[C@H]1C(=O)Nc1c(C)cccc1C [ROPIVACAINE HYDROCHLORIDE]
- IC50 [15]: > 33.3 µM (inactive)
- AC50 (HeLa): > 52 µM (inactive)

Structure (SMILES): c1ccc(Cn2cc(CSc3nnc(C4CCCC4)o3)nn2)cc1
- IC90 [16]: 250 µM (active)
- IC90 [17]: 4 µM (active)
- AC50 [18]: > 52 µM (inactive)
- IC90 [19]: 4 µM (active)

Structure (SMILES): CCc1ccc(-c2nc3ccc(Br)cc3c(C(=O)O)c2C)s1
- IC50 (Major prion protein): 1.24 µM (active)
- IC50 (cells [20]): > 138 µM (inactive)

Structure (SMILES): CCn1c(=O)cc(N2CCC3(CC2)OCCO3)[nH]c1=O
- IC50 [21]: > 100 µM (active)

Structure (SMILES): O=C1NC(=O)N(c2ccccc2F)C(=O)/C1=C/c1ccc(Sc2nc3ccccc3[nH]2)o1
- AC50 (Protein S100-A4): 1.28 µM (active)
- IC50 (Nonstructural protein 1): > 100 µM (active)
- IC50 (Large T antigen): 19.5 µM (active)
- IC50 [22]: 219 µM (active)

Structure (SMILES): COc1ccc(S(=O)(=O)N(C)C[C@H]2Oc3cc(C#CC4CCCC4)ccc3S(=O)(=O)N([C@@H](C)CO)C[C@@H]2C)cc1
- AC50 [23]: 21.4 µM (active)
- AC50 (Paired box protein Pax-8): 6.49 µM (active)
- AC50 [24]: 57.4 µM (active)
- AC50 [25]: 31.3 µM (active)
- AC50 [26]: 8.96 µM (active)

Structure (SMILES): C/C=C/c1ccc([C@@H]2[C@@H]3CN(Cc4cccc(F)c4)C[C@H]2N3)cc1
- AC50 [27]: 4.24 µM (active)
- AC50 [28]: 9.58 µM (active)

Structure (SMILES): O=C(O)c1cc(S(=O)(=O)Nc2ccc3c[nH]nc3c2)ccc1O
- AC50 (Caspase-6): 11.3 µM (active)
